Laboratory results taken from patent US6376497B1, “Antifungal azole derivatives having a fluorinated vinyl group and process for preparing same” (Korea Research Institute of Chemical Technology, priority 1999, dated 2002).

How the values were obtained:
Experiment in all cases: In vitro antifungal activity, microbroth dilution MIC
Format in all cases: cell-based
Conditions in all cases: RPMI-1640, 35° C., 4 to 48 hours, no growth observed
[1] = system: Candida albicans C1-2
Summary of the method: (§1)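 Broth microdilution adapted from NCCLS M27, in RPMI-1640 with 0.165 M MOPS, pH 7.0. Yeast or mould inoculum at 2×10^3 CFU/ml was mixed 1:1 with DMSO-derived compound solutions (200 to 0.10 μg/ml before mixing) and incubated at 35 °C for 4 to 48 h. MIC was the concentration showing no growth.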

[2] = system: Candida krusei K. 11655
Summary of the method: as §1

[3] = system: Cryptococcus neoformans A. 34144
Summary of the method: as §1

[4] = system: Candida parapsitosis A. 7330
Summary of the method: as §1

[5] = system: Candida albicans A. 10231
Summary of the method: as §1

[6] = system: Candida pseudotropicalis K. 11658
Summary of the method: as §1

[7] = system: Torulopsis glabrata B. 16205
Summary of the method: as §1

[8] = system: Trichophyton mentagrophytes B. 32663
Summary of the method: as §1

[9] = system: Cryptococcus neoformans IFM. 40092
Summary of the method: as §1

[10] = system: Cryptococcus neoformans B. 42419
Summary of the method: as §1

[11] = system: Aspergillus niger A. 16404
Summary of the method: as §1

[12] = system: Candida tropicalis A. 13803
Summary of the method: as §1

[13] = system: Candida albicans IFO. 1385
Summary of the method: as §1

[14] = system: Trichophyton mentagrophytes A. 9129
Summary of the method: as §1

[15] = system: Aspergillus furnigatus B. 19119
Summary of the method: as §1

Minimal inhibitory concentration(MIC), C. albicans C1-2 [1] [µg/mL]	Minimal inhibitory concentration(MIC), C. krusei K. 11655 [2] [µg/mL]	Minimal inhibitory concentration(MIC), Cry. neoformans A. 34144 [3] [µg/mL]	Minimal inhibitory concentration(MIC), C. parapsitosis A. 7330 [4] [µg/mL]	Minimal inhibitory concentration(MIC), C. albicans A. 10231 [5] [µg/mL]	Minimal inhibitory concentration(MIC), C. pseudotropicalis K. 11658 [6] [µg/mL]	Minimal inhibitory concentration(MIC), T. glabrata B. 16205 [7] [µg/mL]	Minimal inhibitory concentration(MIC), T. mentagrophytes B. 32663 [8] [µg/mL]	Minimal inhibitory concentration(MIC), Cry. neoformans IFM. 40092 [9] [µg/mL]	Minimal inhibitory concentration(MIC), Cry. neoformans B. 42419 [10] [µg/mL]	Minimal inhibitory concentration(MIC), A. niger A. 16404 [11] [µg/mL]	Minimal inhibitory concentration(MIC), C. tropicalis A. 13803 [12] [µg/mL]	Minimal inhibitory concentration(MIC), C. albicans IFO. 1385 [13] [µg/mL]	Minimal inhibitory concentration(MIC), T. mentagrophytes A. 9129 [14] [µg/mL]	Minimal inhibitory concentration(MIC), A furnigatus B. 19119 [15] [µg/mL]	Structure (SMILES)
50.0	>100	3.13	>100	50.0	>100	50.0	6.25	0.78	3.13	>100	>100	3.13	12.5	100	FC(Oc1ccc(OCC2COC(Cn3ccnc3)(c3ccc(Cl)cc3Cl)O2)cc1)=C(c1cccc(F)c1)C(F)(F)F (mixture of isomers) [Ex. 103]
>100	>100	3.13	>100	100	>100	100	25.0	0.78	3.13	>100	>100	3.13	50.0	>100	FC(Oc1ccc(OCC2COC(Cn3ccnc3)(c3ccc(Cl)cc3Cl)O2)cc1)=C(c1cc(Cl)cc(Cl)c1)C(F)(F)F (mixture of isomers) [Ex. 104]
100	>100	6.25	>100	50.0	>100	>100	100	1.56	12.5	>100	>100	6.25	100	>100	COc1ccc(C=C(F)Oc2ccc(OCC3COC(Cn4ccnc4)(c4ccc(F)cc4F)O3)cc2)cc1 (mixture of isomers) [Ex. 105]
50.0	3.13	1.56	3.13	100	3.13	50.0	1.56	0.39	1.56	>100	>100	1.56	3.13	>100	FC(Oc1ccc(OCC2COC(Cn3ccnc3)(c3ccc(F)cc3F)O2)cc1)=C(c1ccccc1)C(F)(F)F (mixture of isomers) [Ex. 106]
